Measurements as given in patent publication US20240352419A1, “METHODS AND COMPOSITIONS FOR DIFFERENTIATION OF PLURIPOTENT STEM CELLS AND DERIVED HEMATOPOIETIC LINEAGE CELLS” (NUWACELL BIOTECHNOLOGIES CO., LTD., priority 2022, published 2024).

Assays:
hiPSCs = assay: Directed differentiation of hiPSCs into HE, HP and iNK cells (flow cytometry KDR, CD34, CD56); format: cell-based, human; conditions: for output of CD34+ HP cells / output of CD56+ iNK cells: added during Stage 1-4 (XAV939 5 μM, SB431542 6 μM); for output of CD34+ HP cells: Day 10, vs control, FIG. 8A; for output of CD56+ iNK cells: Day 25, vs control, FIGS. 8B and 8C
Procedure: hiPSCs were prepared as described in CN108373998B. On Day −1, Embryoid body (EB) formation (Stage 1-1) was carried out by placing individualized hiPSCs in E8 medium containing 10 μM Blebbistatin in T25 flasks on a bellydancer and culture overnight. On Day 0, lateral mesoderm differentiation (Stage 1-2) was initiated by changing the medium to a Stage 1-2 differentiation medium comprising indicated basal medium (see Table 2.1) and supplemented with BMP4 (25 ng/ml), VEGF (50 ng/mL), bFGF (0.5 ng/ml) and CHIR99021 (4 μM) for 2 days. On Day 2, lateral mesoderm differentiation (Stage 1-3) continued for 1 day in a Stage 1-3 differentiation medium comprising indicated basal medium and supplemented with BMP4 (25 ng/mL), VEGF (50 ng/ml) and bFGF (0.5 ng/ml) and CHIR99021 (1 μM). On Day 3, HE specification (Stage 1-4) was initiated by adding a Stage 1-4 differentiation medium comprising indicated basal medium and supplemented with VEGF (50 ng/mL), bFGF (5 ng/mL), XAV939 (5 μM) for 1 day. On Day 4 (the end of Stage 1-4), EBs were dissociated into single cells and stained with KDR-APC antibody, the percentage of KDR^+ cells were detected by flow cytometry. HP differentiation (Stage 1-5) in was initiated by adding a Stage 1-5 differentiation medium comprising indicated basal medium and supplemented with SCF (10 ng/ml), Flt3L (10 ng/ml), VEGF (15 ng/ml) and bFGF (5 ng/mL) for 3 days. On Day 7 (the end of Stage 1-5), EBs were dissociated into single cells and stained with CD34− APC antibody, the percentage of CD34^+ HP cells was detected by flow cytometry. To initiate the differentiation from HP cells into iNK cells (Stage 2), EBs were collected and seeded in 6-well-plates coated with matrix proteins, DLL4 and VCAM1, in a Stage 2 differentiation medium comprising NKSFM and supplemented with SCF (20 ng/mL), Flt3L (10 ng/mL), IL-7 (25 ng/mL, Peprotech), IL-3 (5 ng/mL, Peprotech), IL-2 (700 IU/mL), IL-15 (10 ng/mL, Peprotech) for 14 days. On Day 21 (Stage 2-wk2), derived cells were counted and stained with CD56-PE antibody, the percentage of CD56^+ iNK cells were detected by flow cytometry. […] This improvement is attributed to the addition of NAM, PLT and Heparin sodium in NKSFM as compared with IF-4.
hiPSCs were prepared as described in CN108373998B. Basal medium used during Stage 2 of differentiation was also evaluated. On Day-1, Embryoid body (EB) formation (Stage 1-1) was carried out by placing individualized hiPSCs in E8 medium containing 10 μM Blebbistatin in T25 flasks on a shaker and cultured overnight. On Day 0, lateral mesoderm differentiation (Stage 1-2) was initiated by changing the medium to a Stage 1-2 differentiation medium comprising IF-4 basal medium and supplemented with BMP4 (25 ng/mL), VEGF (15 ng/mL), bFGF (0.5 ng/mL) and CHIR99021 (4 μM) for 2 days. On Day 2, lateral mesoderm differentiation (Stage 1-3) continued for 1 day in a Stage 1-3 differentiation medium comprising IF-4 basal medium and supplemented with BMP4 (25 ng/ml), VEGF (15 ng/mL) and bFGF (0.5 ng/mL) and CHIR99021 (4 μM). On Day 3, HE specification (Stage 1-4) was initiated by adding a Stage 1-4 differentiation medium comprising IF-4 basal medium and supplemented with VEGF (15 ng/mL), bFGF (5 ng/ml), SB431542 (6 μM) for 1 day. On Day 4 (the end of Stage 1-4), EBs were dissociated into single cells and stained with KDR-APC antibody, the percentage of KDR+ cells was detected by flow cytometry. HP differentiation (Stage 1-5) in was initiated by adding a Stage 1-5 differentiation medium comprising NKSFM and supplemented with SCF (50 ng/ml), Flt3L (10 ng/mL), VEGF (15 ng/mL) and bFGF (5 ng/mL) for 5 days. […]

PBNK cells = assay: Expansion of PBNK cells from PBMCs (expansion fold, CD56+CD3- percentage by flow cytometry); format: cell-based; conditions: effect of NAM concentration (0-5 mM) in basal medium
Procedure: The effect of the concentration of nicotinamide (NAM) in an exemplary basal medium on NK cell expansion was evaluated. The above basal medium comprised the following components: IMDM (Sigma):RPMI1640 (Gibco) (50%: 50%); about 1.3 ng/ml of Cupric sulfate, about 3 μM of Ferric sulfate, about 0.432 μg/mL of Zinc sulfate, about 1˜50 ng/ml of Na Selenite, about 110 μg/mL of Sodium pyruvate, 0.1˜20 μg/mL of Insulin, 1˜200 μg/mL of Transferrin, about 1% (v/v) of GlutaMAX-1, 0.1˜20 mg/mL of HSA, 1˜400 μM of MTG, about 80 μg/mL of Ascorbic acid and indicated concentration of NAM. Peripheral blood mononuclear cells (PBMCs) were isolated by density gradient centrifugation using Ficoll-Paque. On Day 0, PBMCs were plated at 1×10^6 cells/mL in a 48-well-plate in the basal medium with NAM (either 0, 1, 2, 2.5, 3, 3.5, 4, or 5 mM) and stimulated with the following reagents for 3 days: immobilized CD16 antibody (Biolegend, 302014) (135 ng/cm^2), IL-2 (700 IU/mL), IL-15 (10 ng/ml) and OK432 (0.01 KE/mL). On day 3, cells were re-suspended in the above basal medium supplemented with IL-2 (700 IU/mL) and IL-15 (10 ng/mL). Fresh medium was added every other day to maintain cell density below 2×10^6 cells/mL. Cells were collect on Day 14 and stained with CD56-PE and CD3-PerCP-Cy5.5 antibodies, the percentage of CD56^+CD3^− NK cells was analyzed by flow cytometry.
The effect of heparin sodium concentration in an exemplary NKSFM on NK cell expansion was also evaluated. NKSFM comprised the following components: IMDM (Sigma):DMEM/F12 (Gibco) (50%: 50%); about 20 μM of Ethanolamine, about 1˜50 ng/ml of Na Selenite, about 110 μg/mL of Sodium pyruvate, 0.1˜20 μg/mL of Insulin, 1˜200 μg/mL of Transferrin, about 1% (v/v) of GlutaMAX-1, 0.1˜20 mg/mL of Human serum albumin, 1˜400 μM of MTG, about 80 μg/mL of Ascorbic acid, about 1˜5 mM of NAM, 4% (v/v) of PLT, and indicated concentration of heparin sodium. PBMCs were isolated by density gradient centrifugation using Ficoll-Paque. On Day 0, PBMCs were plated at 1×10^6 cells/mL in a 48-well-plate in NKSFM with heparin sodium (0, 0.5, 1, 3, 10, 30, or 50 μg/mL) and stimulated with the following reagents for 3 days: immobilized CD16 antibody (Biolegend, 302014) (135 ng/cm^2), OK432 (0.01 KE/mL), NeoIL-2 (50 ng/ml), IL-12 (10 ng/mL), IL-18 (50 ng/mL). […] Cells were collect on Day 13 and stained with CD56-PE and CD3-PerCP-Cy5.5 antibodies, the percentage of CD56^+CD3^− NK cells was analyzed by flow cytometry. The specific lysis of K562 tumor cells by NK cells were assessed by CFSE/7-AAD cytotoxicity assay. […] After incubation for 4 hours, cells were stained with 7-AAD (Live/dead staining) and analyzed with flow cytometry.
The effect of PLT percentage (v/v) in an exemplary NKSFM on NK cell expansion was evaluated. […]

[1] = higher VEGF concentration during Stage 1-5

## Oc1nc(-c2ccc(C(F)(F)F)cc2)nc2c1CSCC2 [XAV939]
hiPSCs
  output of CD34+ HP cells: significantly promotes
  output of CD56+ iNK cells: significantly promotes

## NC(=O)c1ccc(-c2nc(-c3ccc4c(c3)OCO4)c(-c3ccccn3)[nH]2)cc1 [SB431542]
hiPSCs
  output of CD34+ HP cells: improvement in increasing CD34^+ HP cell production at a certain degree
  output of CD56+ iNK cells: does not show any improvement

## VEGF
hiPSCs; different VEGF concentration (15-100 ng/mL) in Stage 1, FIG. 11A
  percentage of KDR+ HE cells: minimal effects
hiPSCs; different VEGF concentration (15-100 ng/mL) in Stage 1, FIG. 11B
  percentage of CD34+ HP cells: significantly impacts
hiPSCs; different VEGF concentration (15-100 ng/mL) in Stage 1, cell morphology, FIG. 11C
  efficiency of further differentiation into iNK cells: significantly impacts
hiPSCs; higher VEGF concentration during Stage 1-2 and Stage 1-3
  differentiation into HP cells and iNK cells: generally beneficial
hiPSCs; [1]
  differentiation into HP cells: generally beneficial
  differentiation into iNK cells: but not into iNK cells
hiPSCs; higher concentration of VEGF during Stage 1, especially Stage 1-2, 1-3 and 1-4, FIG. 12
  HP and iNK cell differentiation: significantly improves

## NC(=O)c1cccnc1 [NAM, nicotinamide]
PBNK cells; Day 14, FIG. 2A
  NK cell expansion fold: significantly impacts
PBNK cells; Day 14, FIG. 2B
  percentage of CD56+CD3− NK cells: minimal effects

## Cc1c[nH]c(-c2cnc(NCCNc3ccc(C#N)cn3)nc2-c2ccc(Cl)cc2Cl)n1 [CHIR99021]
hiPSCs; higher concentration of CHIR99021 (5-8 μM) during Stage 1-2, FIG. 9A
  differentiation into CD34+ HP cells: generally more advantageous
hiPSCs; higher concentration of CHIR99021 (5-8 μM) during Stage 1-2, FIGS. 9B and 9C
  differentiation into CD56+ iNK cells: somewhat disadvantageous
hiPSCs; lower concentration of CHIR99021 (0-4 μM) during Stage 1-3, FIG. 10A
  differentiation into CD34+ HP cells: somewhat disadvantageous
hiPSCs; lower concentration of CHIR99021 (0-4 μM) during Stage 1-3, FIGS. 10B and 10C
  differentiation into CD56+ iNK cells: generally more advantageous
